Legend:
[1] = The drug is tested on Bifidobacterium longum subsp. Infantis strain: CCUG52486 for biotransformation. The drug concentrations were measured before and after a 12-h incubation by liquid-chromatography-coupled mass spectrometry (LC–MS); conditions: 2 µM
[2] = The drug is tested on Bacteroides dorei strain: DSM17855 for biotransformation. The drug concentrations were measured before and after a 12-h incubation by liquid-chromatography-coupled mass spectrometry (LC–MS); conditions: phocaeicola dorei, 2 µM
[3] = The drug is tested on Bacteroides fragilis strain: ATCC43859 for biotransformation. The drug concentrations were measured before and after a 12-h incubation by liquid-chromatography-coupled mass spectrometry (LC–MS); conditions: 2 µM
[4] = The drug is tested on Bacteroides ovatus strain: ATCC8483 for biotransformation. The drug concentrations were measured before and after a 12-h incubation by liquid-chromatography-coupled mass spectrometry (LC–MS); conditions: 2 µM
[5] = The drug is tested on Bacteroides pectinophilus strain: ATCC43243 for biotransformation. The drug concentrations were measured before and after a 12-h incubation by liquid-chromatography-coupled mass spectrometry (LC–MS); conditions: 2 µM
[6] = The drug is tested on Parabacteroides merdae strain: ATCC43184 for biotransformation. The drug concentrations were measured before and after a 12-h incubation by liquid-chromatography-coupled mass spectrometry (LC–MS); conditions: 2 µM
[7] = The drug is tested on Blautia hansenii strain: DSM20583 for biotransformation. The drug concentrations were measured before and after a 12-h incubation by liquid-chromatography-coupled mass spectrometry (LC–MS); conditions: 2 µM
[8] = The drug is tested on Clostridium asparagiforme strain: DSM15981 for biotransformation. The drug concentrations were measured before and after a 12-h incubation by liquid-chromatography-coupled mass spectrometry (LC–MS); format: ADME; set-up: dose 2 uM, timepoint 0 vs 12 hours; conditions: enterocloster asparagiformis, 2 µM
[9] = The drug is tested on Clostridium sp. strain: fecal isolate for biotransformation. The drug concentrations were measured before and after a 12-h incubation by liquid-chromatography-coupled mass spectrometry (LC–MS); conditions: 2 µM
[10] = The drug is tested on Coprococcus comes strain: ATCC27758 for biotransformation. The drug concentrations were measured before and after a 12-h incubation by liquid-chromatography-coupled mass spectrometry (LC–MS); format: ADME; set-up: dose 2 uM, timepoint 0 vs 12 hours; conditions: 2 µM
[11] = The drug is tested on Eubacterium hallii strain: DSM3353 for biotransformation. The drug concentrations were measured before and after a 12-h incubation by liquid-chromatography-coupled mass spectrometry (LC–MS); conditions: anaerobutyricum hallii, 2 µM
[12] = The drug is tested on Eubacterium rectale strain: ATCC33656 for biotransformation. The drug concentrations were measured before and after a 12-h incubation by liquid-chromatography-coupled mass spectrometry (LC–MS); conditions: agathobacter rectalis, 2 µM
[13] = The drug is tested on Eubacterium ventriosum strain: ATCC27560 for biotransformation. The drug concentrations were measured before and after a 12-h incubation by liquid-chromatography-coupled mass spectrometry (LC–MS); format: ADME; set-up: dose 2 uM, timepoint 0 vs 12 hours; conditions: 2 µM
[14] = The drug is tested on Ruminococcus gnavus strain: ATCC29149 for biotransformation. The drug concentrations were measured before and after a 12-h incubation by liquid-chromatography-coupled mass spectrometry (LC–MS); conditions: mediterraneibacter gnavus, 2 µM
[15] = The drug is tested on Ruminococcus lactaris strain: ATCC29176 for biotransformation. The drug concentrations were measured before and after a 12-h incubation by liquid-chromatography-coupled mass spectrometry (LC–MS); conditions: 2 µM
[16] = The drug is tested on Subdoligranulum variabile strain: DSM15176 for biotransformation. The drug concentrations were measured before and after a 12-h incubation by liquid-chromatography-coupled mass spectrometry (LC–MS); conditions: 2 µM
[17] = The drug is tested on Escherichia coli strain: BW25113 for biotransformation. The drug concentrations were measured before and after a 12-h incubation by liquid-chromatography-coupled mass spectrometry (LC–MS); conditions: 2 µM
[18] = bacteroides stercoris, 12 h, 2 µM
Description: The drug is tested on Bacteroides stercoris strain: ATCC43183 for biotransformation. The drug concentrations were measured before and after a 12-h incubation by liquid-chromatography-coupled mass spectrometry (LC–MS)

[19] = parabacteroides distasonis, 12 h, 2 µM
Description: The drug is tested on Parabacteroides distasonis strain: ATCC8503 for biotransformation. The drug concentrations were measured before and after a 12-h incubation by liquid-chromatography-coupled mass spectrometry (LC–MS)

[20] = enterocloster bolteae, 12 h, 2 µM
Description: The drug is tested on Clostridium bolteae strain: ATCCBAA-613 for biotransformation. The drug concentrations were measured before and after a 12-h incubation by liquid-chromatography-coupled mass spectrometry (LC–MS)

Compound	Bacterial Biotransformation [1]	Bacterial Biotransformation [2]	Bacterial Biotransformation [3]	Bacterial Biotransformation [4]	Bacterial Biotransformation [5]	Bacterial Biotransformation [6]	Bacterial Biotransformation [7]	Bacterial Biotransformation [8]	Bacterial Biotransformation [9]	Bacterial Biotransformation [10]	Bacterial Biotransformation [11]	Bacterial Biotransformation [12]	Bacterial Biotransformation [13]	Bacterial Biotransformation [14]	Bacterial Biotransformation [15]	Bacterial Biotransformation [16]	Bacterial Biotransformation [17]	Bacterial Biotransformation [18]	Bacterial Biotransformation [19]	Bacterial Biotransformation [20]
CCN(CC)C(=O)C1(c2ccccc2)CC1CN (configuration not stated)	Compound NOT metabolized	Compound NOT metabolized	Compound NOT metabolized	Compound NOT metabolized	Compound NOT metabolized	Compound NOT metabolized	Compound NOT metabolized	Compound NOT metabolized	Compound NOT metabolized	Compound NOT metabolized	Compound NOT metabolized	Compound NOT metabolized	Compound NOT metabolized	Compound NOT metabolized	Compound NOT metabolized	Compound NOT metabolized	Compound NOT metabolized	Compound NOT metabolized	Compound NOT metabolized	Compound NOT metabolized
CN1CCN(C(=O)O[C@H]2c3nccnc3C(=O)N2c2ccc(Cl)cn2)CC1 [ESZOPICLONE]	Compound metabolized	Compound NOT metabolized	Compound NOT metabolized	Compound NOT metabolized	Compound NOT metabolized		Compound NOT metabolized	Compound NOT metabolized	Compound metabolized	Compound NOT metabolized	Compound metabolized	Compound NOT metabolized	Compound NOT metabolized	Compound NOT metabolized	Compound NOT metabolized	Compound NOT metabolized	Compound NOT metabolized	Compound NOT metabolized	Compound NOT metabolized	Compound metabolized
COC1=C(OC)C(=O)C(CCCCCCCCCCO)=C(C)C1=O [IDEBENONE]	Compound metabolized	Compound NOT metabolized	Compound metabolized	Compound NOT metabolized	Compound NOT metabolized	Compound NOT metabolized	Compound NOT metabolized	Compound NOT metabolized	Compound NOT metabolized	Compound NOT metabolized	Compound metabolized	Compound NOT metabolized	Compound NOT metabolized	Compound NOT metabolized	Compound metabolized	Compound metabolized	Compound NOT metabolized	Compound NOT metabolized	Compound NOT metabolized	Compound metabolized
Br.COc1ccc2c(c1)[C@]13CCCC[C@@H]1[C@H](C2)N(C)CC3.O [DEXTROMETHORPHAN HYDROBROMIDE]	Compound NOT metabolized	Compound NOT metabolized	Compound NOT metabolized	Compound NOT metabolized	Compound NOT metabolized	Compound NOT metabolized	Compound NOT metabolized	Compound NOT metabolized	Compound NOT metabolized	Compound NOT metabolized	Compound NOT metabolized	Compound NOT metabolized	Compound NOT metabolized	Compound NOT metabolized	Compound NOT metabolized	Compound NOT metabolized	Compound NOT metabolized	Compound NOT metabolized		Compound NOT metabolized
Cc1ccc(S(=O)(=O)NC(=O)NN2CC3CCCC3C2)cc1 (configuration not stated) [GLICLAZIDE]	Compound NOT metabolized	Compound metabolized	Compound metabolized	Compound NOT metabolized	Compound NOT metabolized	Compound NOT metabolized	Compound NOT metabolized	Compound NOT metabolized	Compound NOT metabolized	Compound NOT metabolized	Compound NOT metabolized	Compound NOT metabolized	Compound NOT metabolized	Compound NOT metabolized	Compound NOT metabolized	Compound NOT metabolized	Compound NOT metabolized	Compound NOT metabolized	Compound NOT metabolized	Compound NOT metabolized
O=C1[C@H](CC[C@H](O)c2ccc(F)cc2)[C@@H](c2ccc(O)cc2)N1c1ccc(F)cc1 [EZETIMIBE]	Compound NOT metabolized	Compound NOT metabolized	Compound NOT metabolized		Compound NOT metabolized	Compound NOT metabolized	Compound NOT metabolized	Compound NOT metabolized	Compound NOT metabolized	Compound NOT metabolized	Compound NOT metabolized	Compound NOT metabolized	Compound metabolized	Compound NOT metabolized	Compound NOT metabolized	Compound NOT metabolized	Compound NOT metabolized	Compound NOT metabolized	Compound NOT metabolized	Compound NOT metabolized
CC(=O)CCCCn1c(=O)c2c(ncn2C)n(C)c1=O [PENTOXIFYLLINE]	Compound NOT metabolized	Compound NOT metabolized	Compound NOT metabolized	Compound NOT metabolized		Compound NOT metabolized	Compound NOT metabolized	Compound NOT metabolized	Compound NOT metabolized	Compound NOT metabolized	Compound NOT metabolized	Compound NOT metabolized	Compound NOT metabolized	Compound NOT metabolized	Compound NOT metabolized	Compound NOT metabolized	Compound NOT metabolized	Compound NOT metabolized		
C#C[C@]1(OC(C)=O)CC[C@H]2[C@@H]3CCC4=CC(=O)CC[C@@H]4[C@H]3CC[C@@]21C [NORETHINDRONE ACETATE]	Compound NOT metabolized	Compound metabolized	Compound metabolized	Compound metabolized		Compound metabolized	Compound metabolized	Compound metabolized	Compound metabolized	Compound NOT metabolized	Compound metabolized	Compound metabolized	Compound metabolized	Compound metabolized		Compound NOT metabolized	Compound metabolized	Compound metabolized	Compound NOT metabolized	Compound metabolized

Reference: ChEMBL document CHEMBL5303573, “Mapping human microbiome drug metabolism by gut bacteria and their genes” (Nature, 2019)
